In patent publication US9738655B2, “Tetrahydroisoquinolines containing substituted azoles as factor XIa inhibitors” (BRISTOL-MYERS SQUIBB COMPANY, priority 2013, dated 2017):
Where a name gives a salt, the structure may show the parent alone. Read-outs that look alike come from different tables or passages of the source.

Columns and labels:
[1] = target: purified human Factor XIa (Homo sapiens (Human), UniProt P03951); assay: Factor XIa enzyme inhibition assay (chromogenic substrate S-2366)
[2] = target: purified human plasma kallikrein (Homo sapiens (Human), UniProt P03952); assay: Plasma kallikrein enzyme inhibition assay (chromogenic substrate S-2302); type: biochemical
Sequence of purified human plasma kallikrein (P03952 391-638): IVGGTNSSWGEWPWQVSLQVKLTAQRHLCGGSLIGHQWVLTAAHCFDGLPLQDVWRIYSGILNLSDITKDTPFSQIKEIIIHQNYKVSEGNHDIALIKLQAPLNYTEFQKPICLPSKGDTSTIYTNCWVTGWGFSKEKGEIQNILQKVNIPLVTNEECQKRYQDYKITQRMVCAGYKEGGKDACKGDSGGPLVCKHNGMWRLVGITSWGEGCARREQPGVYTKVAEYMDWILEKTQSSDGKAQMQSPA
Sequence of purified human plasma kallikrein (P03952 20-390 partner): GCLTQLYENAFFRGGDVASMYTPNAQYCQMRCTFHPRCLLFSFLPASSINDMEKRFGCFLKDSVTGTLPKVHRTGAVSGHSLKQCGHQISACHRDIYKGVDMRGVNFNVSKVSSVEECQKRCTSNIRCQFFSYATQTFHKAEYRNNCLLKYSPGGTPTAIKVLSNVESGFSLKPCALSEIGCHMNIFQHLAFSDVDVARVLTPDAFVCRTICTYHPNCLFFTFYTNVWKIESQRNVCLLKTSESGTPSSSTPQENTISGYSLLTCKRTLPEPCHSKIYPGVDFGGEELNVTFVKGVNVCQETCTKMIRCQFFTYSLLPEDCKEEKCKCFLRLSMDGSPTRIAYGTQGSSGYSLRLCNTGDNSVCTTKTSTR

[3] = read-out: Factor XIa Ki, measured at 25° C.
[4] = measured at 25° C. (no asterisk)

Sequence of purified human Factor XIa (P03951 388-625): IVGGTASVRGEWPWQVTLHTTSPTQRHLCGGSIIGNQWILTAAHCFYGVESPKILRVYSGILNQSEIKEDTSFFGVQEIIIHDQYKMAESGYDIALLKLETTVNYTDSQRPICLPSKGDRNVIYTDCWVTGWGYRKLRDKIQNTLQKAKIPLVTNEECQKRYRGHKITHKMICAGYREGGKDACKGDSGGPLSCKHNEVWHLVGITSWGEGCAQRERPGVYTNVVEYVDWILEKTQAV
Sequence of purified human Factor XIa (P03951 19-387 partner): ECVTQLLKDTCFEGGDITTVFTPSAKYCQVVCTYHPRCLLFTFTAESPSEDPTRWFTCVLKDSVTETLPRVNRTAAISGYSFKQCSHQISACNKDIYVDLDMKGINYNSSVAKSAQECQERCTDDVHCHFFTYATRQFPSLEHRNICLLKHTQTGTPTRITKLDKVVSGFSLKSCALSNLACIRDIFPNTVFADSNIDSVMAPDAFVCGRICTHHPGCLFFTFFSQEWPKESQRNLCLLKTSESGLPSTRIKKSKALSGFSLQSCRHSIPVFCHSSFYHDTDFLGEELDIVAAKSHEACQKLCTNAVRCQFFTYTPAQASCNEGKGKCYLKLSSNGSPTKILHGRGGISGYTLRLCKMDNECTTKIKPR

**Q.** `CC(=O)Nc1cccc2c1CCN(C(=O)c1cn(-c3cccc(Cl)c3F)nn1)C2C(=O)Nc1ccc(C(=O)O)cc1` (stereo not shown) [Example 191, 4-(5-Acetamido-2-(1-(3-chloro-2-fluorophenyl)-1H-1,2,3-triazole-4-carbonyl)-1,2,3,4-tetrahydroisoquinoline-1-carboxamido)benzoic acid] was tested. Which Ki [1, 3] did it give?
**A.** 0.0134 µM

**Q.** And the Ki [2, 4]?
**A.** 0.0123 µM

**Q.** What does the source list for `CN1CCC(NC(=O)c2cccc3c2CCN(C(=O)c2cn(-c4cccc(Cl)c4F)nn2)C3C(=O)Nc2ccc(C(=O)O)cc2)CC1` (stereo not shown) [Example 192, 4-(2-(1-(3-Chloro-2-fluorophenyl)-1H-1,2,3-triazole-4-carbonyl)-5-((1-methylpiperidin-4-yl)carbamoyl)-1,2,3,4-tetrahydroisoquinoline-1-carboxamido)benzoic acid, TFA salt]?
**A.** Ki [1, 3]: 0.00997 µM; Ki [2, 4]: 0.0556 µM

**Q.** What does the source list for `O=C(Nc1cccc2c1CCN(C(=O)c1cn(-c3cccc(Cl)c3F)nn1)C2C(=O)Nc1ccc(C(=O)O)cc1)NC1CCCC1` (stereo not shown) [Example 193, 4-(2-(1-(3-Chloro-2-fluorophenyl)-1H-1,2,3-triazole-4-carbonyl)-5-(3-cyclopentylureido)-1,2,3,4-tetrahydroisoquinoline-1-carboxamido)benzoic acid]?
**A.** Ki [1, 3]: 0.0199 µM; Ki [2, 4]: 0.00234 µM

**Q.** With `O=C(O)c1ccc(NC(=O)C2c3cccc(Cl)c3CCN2C(=O)c2cn(-c3cccc(Cl)c3F)nn2)cc1` (stereo not shown) [Example 194, 4-(5-Chloro-2-(1-(3-chloro-2-fluorophenyl)-1H-1,2,3-triazole-4-carbonyl)-1,2,3,4-tetrahydroisoquinoline-1-carboxamido)benzoic acid] as the compound, how does the Ki [1] read?
**A.** 0.0571 µM

**Q.** What about the Ki [2, 4] of the same compound?
**A.** 0.0415 µM

**Q.** Which Ki [1, 3] does the source give for `O=C(O)c1ccc(NC(=O)C2c3cccc(F)c3CCN2C(=O)c2cn(-c3cccc(Cl)c3F)nn2)cc1` (stereo not shown) [Example 195, 4-(2-(1-(3-Chloro-2-fluorophenyl)-1H-1,2,3-triazole-4-carbonyl)-5-fluoro-1,2,3,4-tetrahydroisoquinoline-1-carboxamido)benzoic acid] here?
**A.** 0.0401 µM

**Q.** And the Ki [2, 4]?
**A.** 0.0309 µM

**Q.** With `O=C(O)c1ccc(NC(=O)C2c3cccc(N4CC[C@H](O)C4=O)c3CCN2C(=O)c2cn(-c3cccc(Cl)c3F)nn2)cc1` (stereo partly drawn) [Example 196, 4-(2-(1-(3-Chloro-2-fluorophenyl)-1H-1,2,3-triazole-4-carbonyl)-5-((S)-3-hydroxy-2-oxopyrrolidin-1-yl)-1,2,3,4-tetrahydroisoquinoline-1-carboxamido)benzoic acid, TFA salt] as the compound, how does the Ki [1, 3] read?
**A.** 0.0071 µM

**Q.** What about the Ki [2, 4] of the same compound?
**A.** 0.0119 µM

**Q.** How did the Ki [1, 3] turn out when `O=C(O)c1ccc(NC(=O)C2c3cccc(N4CCN(CC(F)(F)F)CC4=O)c3CCN2C(=O)c2cn(-c3cccc(Cl)c3F)nn2)cc1` (stereo not shown) [Example 197, 4-(2-(1-(3-Chloro-2-fluorophenyl)-1H-1,2,3-triazole-4-carbonyl)-5-(2-oxo-4-(2,2,2-trifluoroethyl)piperazin-1-yl)-1,2,3,4-tetrahydroisoquinoline-1-carboxamido)benzoic acid, TFA salt] was run?
**A.** < 0.005 µM

**Q.** What about the Ki [2, 4] of the same compound?
**A.** 0.01 µM

**Q.** What does the source list for `CN1CCN(c2cccc3c2CCN(C(=O)c2cc(-c4cccc(Cl)c4)no2)C3C(=O)Nc2ccc(C(=O)O)cc2)CC1` (stereo not shown) [Example 198, 4-(2-(3-(3-chlorophenyl)isoxazole-5-carbonyl)-5-(4-methylpiperazin-1-yl)-1,2,3,4-tetrahydroisoquinoline-1-carboxamido)benzoic acid, 2 TFA salt]?
**A.** Ki [1, 3]: 0.0495 µM; Ki [2, 4]: 0.121 µM

**Q.** Which results are given for `CN1CCN(c2cccc3c2CCN(C(=O)c2cn(-c4cccc(Cl)c4)nc2C(F)(F)F)C3C(=O)Nc2ccc(C(=O)O)cc2)CC1` (stereo not shown) [Example 199, 4-(2-(1-(3-chlorophenyl)-3-(trifluoromethyl)-1H-pyrazole-4-carbonyl)-5-(4-methylpiperazin-1-yl)-1,2,3,4-tetrahydroisoquinoline-1-carboxamido)benzoic acid, 2 TFA salt]?
**A.** Ki [1, 3]: 2.31 µM; Ki ([2]; measured at 37° C. (*)): > 6 µM

**Q.** For `CN1CCN(c2cccc3c2CCN(C(=O)c2cnn(-c4cccc(Cl)c4)c2)C3C(=O)Nc2ccc(C(=O)O)cc2)CC1` (stereo not shown) [Example 200, 4-(2-(1-(3-chlorophenyl)-1H-pyrazole-4-carbonyl)-5-(4-methylpiperazin-1-yl)-1,2,3,4-tetrahydroisoquinoline-1-carboxamido)benzoic acid, 2 TFA salt], which Ki [1, 3] is on record?
**A.** 0.0417 µM

**Q.** And the Ki [2, 4]?
**A.** 0.0107 µM

**Q.** For `CN1CCN(c2cccc3c2CCN(C(=O)c2cn(-c4cccc(Cl)c4)nn2)C3C(=O)Nc2ccc(C(=O)O)cc2)CC1` (stereo not shown) [Example 201, 4-(2-(1-(3-chlorophenyl)-1H-1,2,3-triazole-4-carbonyl)-5-(4-methylpiperazin-1-yl)-1,2,3,4-tetrahydroisoquinoline-1-carboxamido)benzoic acid, 2 TFA salt], which Ki [1, 3] is on record?
**A.** 0.00988 µM

**Q.** What about the Ki [2, 4] of the same compound?
**A.** 0.00421 µM

**Q.** How did the Ki [1, 3] turn out when `CN1CCN(c2cccc3c2CCN(C(=O)C2CC(c4c(F)ccc(Cl)c4F)=NO2)C3C(=O)Nc2ccc(C(=O)O)cc2)CC1` (stereo not shown) [Example 205, 4-(2-(3-(3-chloro-2,6-difluorophenyl)-4,5-dihydroisoxazole-5-carbonyl)-5-(4-methylpiperazin-1-yl)-1,2,3,4-tetrahydroisoquinoline-1-carboxamido)benzoic acid, 2 TFA salt] was run?
**A.** < 0.005 µM

**Q.** What about the Ki [2, 4] of the same compound?
**A.** 0.00064 µM

**Q.** For `CN1CCN(c2cccc3c2CCN(C(=O)c2cn(-c4cccc(Cl)c4F)nn2)C3C(=O)Nc2ccc(C(=O)O)cc2)CC1` (stereo not shown) [Example 211, 4-(2-(1-(3-chloro-2-fluorophenyl)-1H-1,2,3-triazole-4-carbonyl)-5-(4-methylpiperazin-1-yl)-1,2,3,4-tetrahydroisoquinoline-1-carboxamido)benzoic acid, 2 TFA salt], which Ki [1, 3] is on record?
**A.** < 0.005 µM

**Q.** What about the Ki [2, 4] of the same compound?
**A.** 0.00052 µM

**Q.** Which Ki [1, 3] does the source give for `COC1CCN(c2cccc3c2CCN(C(=O)c2cn(-c4cccc(Cl)c4F)nn2)C3C(=O)Nc2ccc(C(=O)O)cc2)CC1` (stereo not shown) [Example 215, 4-(2-(1-(3-chloro-2-fluorophenyl)-1H-1,2,3-triazole-4-carbonyl)-5-(4-methoxypiperidin-1-yl)-1,2,3,4-tetrahydroisoquinoline-1-carboxamido)benzoic acid, TFA salt] here?
**A.** < 0.005 µM

**Q.** And the Ki [2, 4]?
**A.** 0.0202 µM

**Q.** With `CN1CCN(c2cccc3c2CCN(C(=O)C2CC(c4cccc(Cl)c4)=NO2)C3C(=O)Nc2ccc(C(=O)O)cc2)CC1` (stereo not shown) [Example 217, 4-(2-(3-(3-chlorophenyl)-4,5-dihydroisoxazole-5-carbonyl)-5-(4-methylpiperazin-1-yl)-1,2,3,4-tetrahydroisoquinoline-1-carboxamido)benzoic acid, 2 TFA salt] as the compound, how does the Ki [1, 3] read?
**A.** 0.0152 µM

**Q.** What about the Ki [2, 4] of the same compound?
**A.** 0.00312 µM

**Q.** What does the source list for `CCOC(=O)c1ccc(NC(=O)C2c3cccc(N4CCC(N5CCCC5)CC4)c3CCN2C(=O)c2cn(-c3cccc(Cl)c3F)nn2)cc1` (stereo not shown) [Example 219, Ethyl 4-(2-(1-(3-chloro-2-fluorophenyl)-1H-1,2,3-triazole-4-carbonyl)-5-(4-(pyrrolidin-1-yl)piperidin-1-yl)-1,2,3,4-tetrahydroisoquinoline-1-carboxamido)benzoate, 2 TFA salt]?
**A.** Ki [1, 3]: < 0.005 µM; Ki [2, 4]: 0.00196 µM

**Q.** Which results are given for `Cn1cc2c(n1)CCN(C(=O)c1cn(-c3cccc(Cl)c3F)nn1)C2C(=O)Nc1ccc(C(=O)O)cc1` (stereo not shown) [Example 220, 4-(5-(1-(3-Chloro-2-fluorophenyl)-1H-1,2,3-triazole-4-carbonyl)-2-methyl-4,5,6,7-tetrahydro-2H-pyrazolo[4,3-c]pyridine-4-carboxamido)benzoic acid]?
**A.** Ki [1, 3]: 0.769 µM; Ki [2, 4]: 0.179 µM

**Q.** `Cc1nn(C)c2c1C(C(=O)Nc1ccc(C(=O)O)cc1)N(C(=O)c1cn(-c3cccc(Cl)c3F)nn1)CC2` (stereo not shown) [Example 221, 4-(5-(1-(3-Chloro-2-fluorophenyl)-1H-1,2,3-triazole-4-carbonyl)-1,3-dimethyl-4,5,6,7-tetrahydro-1H-pyrazolo[4,3-c]pyridine-4-carboxamido)benzoic acid] was tested. Which Ki [1, 3] did it give?
**A.** 0.179 µM

**Q.** What about the Ki [2, 4] of the same compound?
**A.** 0.00956 µM

**Q.** How did the Ki [1, 3] turn out when `Cc1c2c(nn1C)CCN(C(=O)c1cn(-c3cccc(Cl)c3F)nn1)C2C(=O)Nc1ccc(C(=O)O)cc1` (stereo not shown) [Example 222, 4-(5-(1-(3-Chloro-2-fluorophenyl)-1H-1,2,3-triazole-4-carbonyl)-2,3-dimethyl-4,5,6,7-tetrahydro-2H-pyrazolo[4,3-c]pyridine-4-carboxamido)benzoic acid] was run?
**A.** 0.03 µM

**Q.** What about the Ki [2, 4] of the same compound?
**A.** 0.0104 µM

**Q.** `CC(C)c1nnc2n1CCN(C(=O)c1cn(-c3cccc(Cl)c3F)nn1)C2C(=O)Nc1ccc(C(=O)O)cc1` (stereo not shown) [Example 223, 4-(7-(1-(3-Chloro-2-fluorophenyl)-1H-1,2,3-triazole-4-carbonyl)-3-isopropyl-5,6,7,8-tetrahydro-[1,2,4]triazolo[4,3-a]pyrazine-8-carboxamido)benzoic acid] was tested. Which Ki [1, 3] did it give?
**A.** 2.63 µM

**Q.** And the Ki [2, 4]?
**A.** 3.51 µM

**Q.** What does the source list for `COC(C)(C)C1CCN(c2cccc3c2CCN(C(=O)c2cnn(-c4cccc(Cl)c4F)c2)C3C(=O)Nc2ccc(C(=O)O)cc2)CC1` (stereo not shown) [Example 224, 4-(2-(1-(3-Chloro-2-fluorophenyl)-1H-pyrazole-4-carbonyl)-5-(4-(2-methoxypropan-2-yl)piperidin-1-yl)-1,2,3,4-tetrahydroisoquinoline-1-carboxamido)benzoic acid, TFA salt]?
**A.** Ki [1, 3]: < 0.005 µM; Ki [2, 4]: 0.092 µM

**Q.** What does the source list for `CC(CO)(CO)COC(C)(C)C1CCN(c2cccc3c2CCN(C(=O)c2cnn(-c4cccc(Cl)c4F)c2)C3C(=O)Nc2ccc(C(=O)O)cc2)CC1` (stereo not shown) [Example 225, 4-(2-(1-(3-Chloro-2-fluorophenyl)-1H-pyrazole-4-carbonyl)-5-(4-(2-(3-hydroxy-2-(hydroxymethyl)-2-methylpropoxy)propan-2-yl)piperidin-1-yl)-1,2,3,4-tetrahydroisoquinoline-1-carboxamido)benzoic acid, TFA salt]?
**A.** Ki [1, 3]: < 0.005 µM; Ki [2, 4]: 0.0488 µM

**Q.** `O=C(O)c1ccc(NC(=O)C2c3cccc(N4CCN(C5COC5)CC4)c3CCN2C(=O)c2cn(-c3cccc(Cl)c3F)nn2)cc1` (stereo not shown) [Example 226, 4-(2-(1-(3-Chloro-2-fluorophenyl)-1H-1,2,3-triazole-4-carbonyl)-5-(4-(oxetan-3-yl)piperazin-1-yl)-1,2,3,4-tetrahydroisoquinoline-1-carboxamido)benzoic acid, TFA salt] was tested. Which Ki [1, 3] did it give?
**A.** < 0.005 µM

**Q.** What about the Ki [2, 4] of the same compound?
**A.** 0.00765 µM
